Legend:
[1] = tested on: Human immunodeficiency virus 1; test: Antiviral activity against Human immunodeficiency virus 1 infected human H9 cells assessed as inhibition of viral replication; assay type: functional, organism-based; details: Human immunodeficiency virus 1, H9
[2] = Therapeutic index, ratio of IC50 for human H9 cells to EC50 for HIV1; assay type: cell-based; details: for pTI: h9

| SMILES | EC50 ([1]; read-out: pEC50 (converted)) [nM] | pTI [2] | EC50 ([1]; read-out: EC50) [nM] | selectivity ratio ([2]; H9 cells, read-out: Ratio IC50/EC50) |
| --- | --- | --- | --- | --- |
| C=C(C)[C@@H]1CC[C@]2(COC(=O)CC(C)(C)CC(=O)O)CC[C@]3(C)[C@H](CC[C@@H]4[C@@]5(C)CC[C@H](OC(=O)CC(C)(C)CC(=O)O)C(C)(C)[C@@H]5CC[C@]43C)[C@@H]12 | 0.659 | -4.333 |  |  |
| C=C(C)[C@@H]1CC[C@]2(COC(C)=O)CC[C@]3(C)[C@H](CC[C@@H]4[C@@]5(C)CC[C@H](OC(C)=O)C(C)(C)[C@@H]5CC[C@]43C)[C@@H]12 [BETULIN DIACETATE] | 190000 | 0 |  |  |
| C=C(C)[C@@H]1CC[C@]2(COC(=O)CC(C)(C)CC(=O)O)CC[C@]3(C)[C@H](CC[C@@H]4[C@@]5(C)CCC(=O)C(C)(C)[C@@H]5CC[C@]43C)[C@@H]12 | 10000 | -0.462 |  |  |
| C=C(COC(=O)CC1(CC(=O)O)CCCC1)[C@@H]1CC[C@]2(COC(=O)CC3(CC(=O)O)CCCC3)CC[C@]3(C)[C@H](CC[C@@H]4[C@@]5(C)CC[C@H](OC(=O)CC6(CC(=O)O)CCCC6)C(C)(C)[C@@H]5CC[C@]43C)[C@@H]12 | 5.4 | -3.076 |  |  |
| C=C(C)[C@@H]1CC[C@]2(C(=O)O)CC[C@]3(C)[C@H](CC[C@@H]4[C@@]5(C)CC[C@H](OC(=O)CC(C)(C)C(=O)O)C(C)(C)[C@@H]5CC[C@]43C)[C@@H]12 [BEVIRIMAT] | 0.3 | -4.301 | 0.35 | 20000 |
| C=C(C)[C@@H]1CC[C@]2(COC(=O)CCCC(=O)O)CC[C@]3(C)[C@H](CC[C@@H]4[C@@]5(C)CC[C@H](OC(=O)CCCC(=O)O)C(C)(C)[C@@H]5CC[C@]43C)[C@@H]12 | 3800 | -0.833 |  |  |
| CC(C)[C@@H]1CC[C@]2(C(=O)O)CC[C@]3(C)[C@H](CC[C@@H]4[C@@]5(C)CC[C@H](OC(=O)CCCC(=O)O)C(C)(C)[C@@H]5CC[C@]43C)[C@@H]12 | 1800 | -0.875 |  |  |
| CC(C)[C@@H]1CC[C@]2(COC(=O)CC3(CC(=O)O)CCCC3)CC[C@]3(C)[C@H](CC[C@@H]4[C@@]5(C)CC[C@H](OC(=O)CC6(CC(=O)O)CCCC6)C(C)(C)[C@@H]5CC[C@]43C)[C@@H]12 | 579 | -1.568 |  |  |
| C=C(C)[C@@H]1CC[C@]2(C(=O)OC(=O)N3CCOCC3)CC[C@]3(C)[C@H](CC[C@@H]4[C@@]5(C)CC[C@H](O)C(C)(C)[C@@H]5CC[C@]43C)[C@@H]12 | 3200 | -0.556 |  |  |
